Drawing on PubChem BioAssay (NCI), this text covers GI50 and TGI for ten compounds.

Values joined by “and” are separate entries in the source; they are usually repeats but may differ in a detail not shown here. Identical values can stand only once.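 Assay format: 96-well plates, 48-hour exposure. Here, GI50 denotes the concentration required for 50% inhibition of growth. Definition used: TGI = concentration required for complete inhibition of growth.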 Some results are limits rather than exact numbers.

Among the test systems are SNB-75 CNS; OVCAR-5 ovarian; COLO 205 colon; OVCAR-4 ovarian; UO-31 renal; MDA-MB-435; K-562 leukemia; DU-145 prostate.
What all share (assay): NCI-60 cell line screen, 48 h

For the compound `CCN(CC)c1ccc2nc3ccc(=[N+](CC)CC)cc-3oc2c1`, the GI50 is 1.31 µM with SNB-75 CNS; 0.442 µM with OVCAR-5 ovarian; 0.0222 µM in the experiment with COLO 205 colon; 0.0463 µM in the experiment with OVCAR-4 ovarian; 2.63 µM with UO-31 renal; 0.401 µM in the experiment with MDA-MB-435. Moreover, the GI50 in the experiment with K-562 leukemia is 0.174 µM; with DU-145 prostate, 0.522 µM. Also, the TGI is 6.85 µM with SNB-75 CNS; 2.92 µM in the experiment on OVCAR-5 ovarian; 0.86 µM with COLO 205 colon; 1.28 µM with OVCAR-4 ovarian; 25 µM in the experiment on UO-31 renal; 1.89 µM in the experiment with MDA-MB-435. The TGI in the experiment on K-562 leukemia is greater than 100 µM; in the experiment on DU-145 prostate, 20.9 µM.
For `CCO/C=C1\SC(=S)N(c2ccc(OCC)cc2)C1=O`, the TGI with SNB-75 CNS, in the experiment with OVCAR-5 ovarian, in the experiment with COLO 205 colon, in the experiment with OVCAR-4 ovarian, in the experiment on UO-31 renal and in the experiment with MDA-MB-435 was greater than 100 µM in each case. In addition, the TGI in the experiment on K-562 leukemia and in the experiment on DU-145 prostate was greater than 100 µM in each case.
For the compound `Cc1noc(NC(=O)Nc2ccccc2F)c1C#N`, the TGI in the experiment on SNB-75 CNS was greater than 100 µM; with OVCAR-5 ovarian, greater than 45.8 µM; in the experiment on COLO 205 colon, greater than 100 µM; with OVCAR-4 ovarian, greater than 100 µM; in the experiment on UO-31 renal, 4.42 µM; in the experiment with MDA-MB-435, greater than 100 µM. Moreover, the TGI in the experiment on K-562 leukemia and in the experiment with DU-145 prostate was greater than 100 µM in each case.
On to `COc1cc2nnc3c4cccnc4[nH]c3c2cc1OC`, for which the GI50 in the experiment with SNB-75 CNS is 2.35 µM and 1.48 µM; with OVCAR-5 ovarian it was 7.26 µM and 2.53 µM; with COLO 205 colon, 6.92 µM and 2.96 µM; with OVCAR-4 ovarian, 1.95 µM and 1.6 µM; in the experiment on UO-31 renal, 1.52 µM and 0.486 µM; in the experiment with MDA-MB-435, 5.66 µM and 2.23 µM. In addition, the GI50 with K-562 leukemia was 0.577 µM; in the experiment on DU-145 prostate, 4.32 µM and 2.1 µM. Besides, the TGI with SNB-75 CNS was 21.9 µM and 7.45 µM; with OVCAR-5 ovarian, 50 µM and 7.24 µM; in the experiment on COLO 205 colon it was 16 µM and 11.6 µM; in the experiment with OVCAR-4 ovarian it was 50 µM and > 100 µM; with UO-31 renal, 10.9 µM and 2.66 µM; with MDA-MB-435 it was 38.7 µM and 6.96 µM. For the same compound, the TGI with K-562 leukemia was 50 µM; in the experiment with DU-145 prostate, 18.3 µM and 5.11 µM.
With `O=C(COc1ccc(/C=C2\Oc3ccccc3C2=O)cc1)Nc1nc2ccccc2s1`, the GI50 is 1.99 µM with SNB-75 CNS; 39.4 µM in the experiment with OVCAR-5 ovarian; 32 µM with COLO 205 colon; 21.2 µM in the experiment with OVCAR-4 ovarian; 13 µM in the experiment with UO-31 renal; 8.21 µM in the experiment on MDA-MB-435. Moreover, the values for the GI50 in the experiment with K-562 leukemia and in the experiment with DU-145 prostate were 16.7 µM and 5.59 µM, respectively. Moreover, the TGI is greater than 45.5 µM with SNB-75 CNS; greater than 100 µM with OVCAR-5 ovarian; greater than 89.8 µM in the experiment with COLO 205 colon; greater than 100 µM in the experiment on OVCAR-4 ovarian; greater than 57.6 µM in the experiment with UO-31 renal; greater than 100 µM in the experiment on MDA-MB-435. The TGI in the experiment on K-562 leukemia and with DU-145 prostate was greater than 100 µM each time.
Take `CNCc1ccc(-c2cc(-c3nc(-c4ccc(S(=O)(=O)C(C)C)cc4)cnc3N)on2)cc1`: the GI50 in the experiment with SNB-75 CNS is 11.4 µM; in the experiment with OVCAR-5 ovarian, 4.02 µM; in the experiment with COLO 205 colon, 10.8 µM; with OVCAR-4 ovarian, 5.05 µM; in the experiment on UO-31 renal it was 1.35 µM; with MDA-MB-435 it was 1.35 µM. For the same compound, the GI50 in the experiment on K-562 leukemia is 1.05 µM; in the experiment on DU-145 prostate, 0.798 µM. Further, the TGI worked out at 26.4 µM in the experiment with SNB-75 CNS; 21.9 µM in the experiment with OVCAR-5 ovarian; 24.1 µM in the experiment with COLO 205 colon; 22.8 µM with OVCAR-4 ovarian; 14 µM in the experiment with UO-31 renal; 2.79 µM in the experiment with MDA-MB-435. For the same compound, the TGI with K-562 leukemia is 3.61 µM; in the experiment on DU-145 prostate it was 5.91 µM.
As for `C#Cc1ccc(-n2c(/C=C/c3ccc(O)cc3)nc3ncccc3c2=O)cc1`, the GI50 with SNB-75 CNS was 0.948 µM; in the experiment with OVCAR-5 ovarian, 32.3 µM; with COLO 205 colon, greater than 100 µM; in the experiment with OVCAR-4 ovarian, 22.8 µM; in the experiment with UO-31 renal it was 3.79 µM; with MDA-MB-435, 1.6 µM. Besides, the GI50 is 4.33 µM in the experiment on K-562 leukemia and 4.1 µM in the experiment on DU-145 prostate. The TGI was 32.5 µM with SNB-75 CNS; greater than 100 µM in the experiment on OVCAR-5 ovarian; greater than 100 µM with COLO 205 colon; greater than 100 µM with OVCAR-4 ovarian; 33.7 µM in the experiment with UO-31 renal; 4.04 µM in the experiment on MDA-MB-435. Further, the TGI in the experiment with K-562 leukemia was greater than 100 µM; in the experiment on DU-145 prostate it was 76.5 µM.
As to `[O]=[V]([OH])([OH])[OH]`, the GI50 with SNB-75 CNS is greater than 100 µM; in the experiment with OVCAR-5 ovarian, greater than 100 µM; in the experiment with COLO 205 colon, greater than 100 µM; in the experiment with OVCAR-4 ovarian, 54.2 µM; with UO-31 renal, greater than 100 µM; in the experiment with MDA-MB-435, 79.2 µM. Moreover, the GI50 in the experiment with K-562 leukemia and with DU-145 prostate was greater than 100 µM throughout. Moreover, the TGI in the experiment on SNB-75 CNS, with OVCAR-5 ovarian, in the experiment on COLO 205 colon, with OVCAR-4 ovarian, in the experiment on UO-31 renal and with MDA-MB-435 was greater than 100 µM each time. Further, the TGI with K-562 leukemia and with DU-145 prostate was greater than 100 µM throughout.
With `Cc1cc(Cl)nc(N(CCNc2ccnc3cc(Cl)ccc23)Cc2ccco2)n1`, the GI50 with SNB-75 CNS was 1.57 µM; in the experiment with OVCAR-5 ovarian it was 2.72 µM; in the experiment on COLO 205 colon, 1.64 µM; with OVCAR-4 ovarian, 1.67 µM; in the experiment on UO-31 renal it was 1.42 µM; in the experiment on MDA-MB-435, 1.76 µM. Moreover, the GI50 was 1.54 µM with K-562 leukemia and 1.9 µM in the experiment on DU-145 prostate. Besides, the TGI in the experiment on SNB-75 CNS turned out to be 4.18 µM; in the experiment with OVCAR-5 ovarian, 8.11 µM; in the experiment on COLO 205 colon, 3.23 µM; with OVCAR-4 ovarian, 3.38 µM; in the experiment with UO-31 renal, 2.93 µM; in the experiment with MDA-MB-435 it was 3.4 µM. Further, the TGI was found to be 3.35 µM with K-562 leukemia and 3.8 µM with DU-145 prostate.
With `CC(=O)Oc1ccc(C2=Cc3ccc(OC(C)=O)cc3OC2C)cc1` (centres undefined), the GI50 in the experiment with SNB-75 CNS is 3.48 µM; in the experiment with OVCAR-5 ovarian, 21.1 µM; with COLO 205 colon, 27.9 µM; in the experiment with OVCAR-4 ovarian, 14.2 µM; in the experiment on UO-31 renal, 2.05 µM; in the experiment on MDA-MB-435 it was 0.63 µM. The GI50 was 3.05 µM with K-562 leukemia and 3.27 µM with DU-145 prostate. Moreover, the TGI in the experiment on SNB-75 CNS is 29.7 µM; in the experiment on OVCAR-5 ovarian, greater than 100 µM; with COLO 205 colon, greater than 100 µM; in the experiment on OVCAR-4 ovarian it was 81.4 µM; in the experiment on UO-31 renal it was 6.65 µM; in the experiment on MDA-MB-435, 15 µM. Moreover, the values for the TGI in the experiment with K-562 leukemia and with DU-145 prostate were greater than 100 µM and 13.9 µM, respectively.
